# Measurements published in PubChem BioAssay (NCI).
#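 Five concentrations, 48 hours, 96-well plates. The concentration for 50% growth inhibition is given as GI50. TGI: concentration producing complete growth inhibition.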
# How the values were obtained:
# Experiment in all cases: DTP human tumour cell line panel, 48 h
# [1] = test system: HCT-116 colon
# [2] = test system: CAKI-1 renal
# [3] = test system: OVCAR-3 ovarian
# [4] = test system: SF-539 CNS
# [5] = test system: ACHN renal
# [6] = test system: SNB-19 CNS
# [7] = test system: COLO 205 colon
# [8] = test system: SK-OV-3 ovarian
# [9] = test system: HOP-62 NSCLC
# [10] = test system: RPMI-8226 leukemia
# [11] = test system: SF-268 CNS
# [12] = test system: HCT-15 colon
# [13] = test system: DU-145 prostate
# [14] = test system: UO-31 renal
# [15] = test system: OVCAR-8 ovarian
# [16] = test system: MDA-MB-435
# [17] = test system: 786-0 renal
# [18] = test system: SK-MEL-5 melanoma
# [19] = test system: OVCAR-5 ovarian
# [20] = test system: SK-MEL-28 melanoma
# [21] = test system: HL-60(TB) leukemia
# [22] = test system: A498 renal
# [23] = test system: CCRF-CEM leukemia
# [24] = test system: TK-10 renal
# [25] = test system: NCI/ADR-RES ovarian
# [26] = test system: K-562 leukemia
# [27] = test system: MCF7 breast
# [28] = test system: OVCAR-4 ovarian
# [29] = test system: MALME-3M melanoma
# [30] = test system: KM12 colon
# [31] = test system: NCI-H522 lung
# [32] = test system: NCI-H460 lung
# [33] = test system: UACC-257 melanoma
# [34] = test system: LOX IMVI melanoma
# [35] = test system: MDA-MB-231 breast
# [36] = test system: NCI-H226 lung
# [37] = test system: T-47D breast
# [38] = test system: NCI-H23 lung
# [39] = test system: HS 578T breast
# [40] = test system: HCC-2998 colon
# [41] = test system: M14 melanoma
# [42] = test system: SW-620 colon
# [43] = test system: MOLT-4 leukemia
# [44] = test system: SNB-75 CNS
# [45] = test system: HOP-92 NSCLC
# [46] = test system: RXF 393 renal
# [47] = test system: HT29 colon
# [48] = test system: BT-549 breast
# [49] = test system: SF-295 CNS
# [50] = test system: U251 CNS
# [51] = test system: SR leukemia
# [52] = test system: SN12C renal
# [53] = test system: UACC-62 melanoma
# [54] = test system: PC-3 prostate
# [55] = test system: A549 NSCLC
# [56] = test system: EKVX NSCLC
# [57] = test system: IGROV1 ovarian
# [58] = test system: SK-MEL-2 melanoma
smiles,measurement,setting,value
Clc1ccc2c(c1)N(C1CCCN(Cc3ccccc3)C1)c1ccccc1S2 (configuration not stated),GI50,[1],2.92 µM
same,TGI,[1],11.5 µM
same,GI50,[2],4.38 µM
same,TGI,[2],24 µM
same,GI50,[3],3.27 µM
same,TGI,[3],24.4 µM
same,GI50,[4],4.61 µM
same,TGI,[4],56.2 µM
same,GI50,[5],7.22 µM
same,TGI,[5],> 100 µM
same,GI50,[6],6.02 µM
same,TGI,[6],> 100 µM
same,GI50,[7],2.9 µM
same,TGI,[7],10.1 µM
same,GI50,[8],3.36 µM
same,TGI,[8],> 100 µM
same,GI50,[9],22.3 µM
same,TGI,[9],> 100 µM
same,GI50,[10],3.91 µM
same,TGI,[10],> 100 µM
same,GI50,[11],3.8 µM
same,TGI,[11],> 100 µM
same,GI50,[12],4.12 µM
same,TGI,[12],> 100 µM
same,GI50,[13],4.03 µM
same,TGI,[13],19.7 µM
same,GI50,[14],3.12 µM
same,TGI,[14],> 100 µM
same,GI50,[15],6.36 µM
same,TGI,[15],> 100 µM
same,GI50,[16],1.79 µM
same,TGI,[16],3.72 µM
same,GI50,[17],4.44 µM
same,TGI,[17],> 100 µM
same,GI50,[18],5.71 µM
same,TGI,[18],25.3 µM
same,GI50,[19],14.6 µM
same,TGI,[19],> 100 µM
same,GI50,[20],7.69 µM
same,TGI,[20],> 100 µM
same,GI50,[21],4.52 µM
same,TGI,[21],72.5 µM
same,GI50,[22],14.7 µM
same,TGI,[22],> 100 µM
same,GI50,[23],4.89 µM
same,TGI,[23],> 100 µM
same,GI50,[24],71.8 µM
same,TGI,[24],> 100 µM
same,GI50,[25],3.24 µM
same,TGI,[25],13.7 µM
same,GI50,[26],3.19 µM
same,TGI,[26],> 100 µM
same,GI50,[27],3.25 µM
same,TGI,[27],> 100 µM
same,GI50,[28],18 µM
same,TGI,[28],> 100 µM
same,GI50,[29],3.88 µM
same,TGI,[29],39.9 µM
same,GI50,[30],4.73 µM
same,TGI,[30],> 100 µM
same,GI50,[31],2.13 µM
same,TGI,[31],6.3 µM
same,GI50,[32],3.17 µM
same,TGI,[32],10.4 µM
same,GI50,[33],18.3 µM
same,TGI,[33],> 100 µM
same,GI50,[34],6 µM
same,TGI,[34],35.8 µM
same,GI50,[35],3.35 µM
same,TGI,[35],13.1 µM
same,GI50,[36],22.6 µM
same,TGI,[36],> 100 µM
same,GI50,[37],7.4 µM
same,TGI,[37],> 100 µM
same,GI50,[38],9.33 µM
same,TGI,[38],> 100 µM
same,GI50,[39],2.12 µM
same,TGI,[39],6.07 µM
same,GI50,[40],5.59 µM
same,TGI,[40],32.3 µM
same,GI50,[41],2 µM
same,TGI,[41],4.41 µM
same,GI50,[42],2.98 µM
same,TGI,[42],32.5 µM
same,GI50,[43],16.6 µM
same,TGI,[43],> 100 µM
same,GI50,[44],4.11 µM
same,TGI,[44],> 100 µM
same,GI50,[45],4.68 µM
same,TGI,[45],74.2 µM
same,GI50,[46],3.69 µM
same,TGI,[46],25.3 µM
same,GI50,[47],11.5 µM
same,TGI,[47],> 100 µM
same,GI50,[48],7.39 µM
same,TGI,[48],77 µM
same,GI50,[49],2.44 µM
same,TGI,[49],6.82 µM
same,GI50,[50],4.31 µM
same,TGI,[50],> 100 µM
same,GI50,[51],3.01 µM
same,TGI,[51],32.7 µM
same,GI50,[52],5.79 µM
same,TGI,[52],> 100 µM
same,GI50,[53],6.94 µM
same,TGI,[53],> 100 µM
same,GI50,[54],4.4 µM
same,TGI,[54],> 100 µM
same,GI50,[55],4.94 µM
same,TGI,[55],> 100 µM
same,GI50,[56],4.22 µM
same,TGI,[56],79.9 µM
COc1ccc(CNc2nc(NCc3ccc(OC)cc3)nc(NC3CCCC3)n2)cc1,TGI,[1],10.1 µM
same,TGI,[2],> 84.1 µM
same,TGI,[3],> 23 µM
same,TGI,[4],11.4 µM
same,TGI,[5],> 100 µM
same,TGI,[6],> 100 µM
same,TGI,[7],> 25.1 µM
same,TGI,[8],> 100 µM
same,TGI,[9],> 100 µM
same,TGI,[10],> 30.4 µM
same,TGI,[11],> 100 µM
same,TGI,[12],> 20.6 µM
same,TGI,[57],> 33.7 µM
same,TGI,[13],> 40.7 µM
same,TGI,[14],> 91.1 µM
same,TGI,[15],20 µM
same,TGI,[16],4.95 µM
same,TGI,[17],> 68.5 µM
same,TGI,[18],14 µM
same,TGI,[19],> 44.7 µM
same,TGI,[20],> 100 µM
same,TGI,[21],> 28.3 µM
same,GI50,[22],62.1 µM
same,TGI,[22],> 100 µM
same,TGI,[23],> 100 µM
same,TGI,[24],> 26.1 µM
same,TGI,[25],13.4 µM
same,TGI,[26],> 24.7 µM
same,TGI,[27],9.83 µM
same,TGI,[28],> 100 µM
same,TGI,[58],> 100 µM
same,TGI,[29],> 100 µM
same,TGI,[30],1.59 µM
same,TGI,[31],> 19.9 µM
same,TGI,[32],> 33.8 µM
same,TGI,[33],> 100 µM
same,TGI,[34],76.9 µM
same,TGI,[35],> 31.2 µM
same,TGI,[36],> 55.8 µM
same,TGI,[37],> 100 µM
same,TGI,[38],> 22.2 µM
same,TGI,[39],> 21.3 µM
same,GI50,[40],3.67 µM
same,TGI,[40],38.6 µM
same,TGI,[41],> 100 µM
same,TGI,[42],> 100 µM
same,TGI,[43],> 100 µM
same,TGI,[44],> 100 µM
same,TGI,[45],> 100 µM
same,TGI,[46],3.61 µM
same,TGI,[47],13.6 µM
same,TGI,[48],> 31.8 µM
same,TGI,[49],> 31.5 µM
same,TGI,[50],> 25.3 µM
same,TGI,[51],> 100 µM
same,TGI,[52],> 100 µM
same,TGI,[53],> 59.6 µM
same,TGI,[54],> 100 µM
same,TGI,[55],> 67.7 µM
same,TGI,[56],> 100 µM
